These are literature values, as cited in patent publication US7872030B2, “Use of 2-[5-(4-fluorophenyl)-3-pyridylmethylaminomethyl]-chromane and its physiologically acceptable salts” (Merck Patent GmbH, priority 2001, dated 2011).

The test system of the data set is advanced Parkinson patients. The note with it: cited from earlier work.

Each structure is given as a SMILES string.

For `O=C1CC2(CCCC2)CC(=O)N1CCCCN1CCN(c2ncccn2)CC1` [buspirone], the anti-dyskinetic properties result is listed as “moderate anti-dyskinetic properties”.
